{
  "source": "patent US20150224164A1",
  "about": "“TREATMENT OF AUTISM SPECTRUM DISORDERS USING GLYCYL-L-2-METHYLPROLYL-L-GLUMATIC ACID” (Neuren Pharmaceuticals Limited, priority 2013, published 2015)",
  "key": {"[1]": {"system": "subjects with Rett Syndrome", "assay": "Placebo controlled study in subjects with Rett Syndrome (Example 15)", "format": "in vivo, human", "source_text": "Thirty subjects with Rett Syndrome are recruited. Subjects are female and aged between […] (Mean=12.1 SD=4.4). All subjects have an IQ<60 and mutations of the MECP2 gene. Subjects also show ether spike activity in the EEG or an increase in lower frequency bands of the EEG as detected by Fast Fourier Transform (FFT). Subjects are instructed that concomitant medications are to be stable for at least six weeks prior to study. Subjects receiving medication to treat signs of inattention are tested in the morning and instructed to take their medication in the afternoon. Subjects with QTc interval >451 msec are excluded.\nThe study is a randomized double blind placebo controlled parallel study with three doses of either placebo, 10 mg/kg T.I.D oral G-2-MePE for five days, or 30 mg/kg T.I.D. oral G-2-MePE.\nSubjects are tested at baseline using the following instruments: The Rett Syndrome Natural History/Clinical Severity Scale, Aberrant Behavior Checklist Community Edition (ABC), Vinelands, Clinical Global Impression of Severity (CGI-S) and their carers completed the Caregiver Strain Questionnaire (CSQ).\nSubjects are brought into clinic on an inpatient basis to enable initial baseline recordings of EEG, ECG and respiratory rate continuously for 24 hours using polysomnography technology. Hand movements are also recorded using the Q-Sensor™. Derived EEG measures include: spikes per unit time in the EEG, overall power of frequency bands of the EEG, QTc and heart rate variability (HRV), and respiratory irregularities.\nAdverse events are also recorded using standard safety measures and the SMURF elicitation of adverse events\nStatistically, the effect of treatment with G-2-MePE is analysed by conducting a repeated analysis of covariance (ANCOVA) on the effect of treatment on change from baseline scores."}, "[2]": {"assay": "Pharmacokinetics after intravenous bolus injection", "format": "in vivo, rat", "protocol": "Adult male Wistar rats weighing between 180 and 240 g were used to determine the pharmacokinetics of GPE and G2MePE. To facilitate intravenous bolus injections and blood sampling, all rats were surgically implanted with an indwelling jugular venous cannula under halothane anesthesia three days before the experiment. Groups of six rats were given a single intravenous bolus injection of either 30 mg/kg GPE or 10 mg/kg G2MePE dissolved in 0.1M succinate buffer (pH 6.5). Blood samples (about 220 μl each) were collected into heparinized tubes containing Sigma protease inhibitor cocktail for mammalian tissues at 10 and 0 min before injection of either GPE or G2MePE, and 1, 2, 4, 8, 16, 32, 64 and 128 min after injection of either GPE or G2MePE. The samples were centrifuged at 3000 g for 15 min at 4° C. and the plasma removed and stored at −80° C. until extraction and assay by either radioimmunoassay (“RIA”) or reverse phase HPLC. The RIA and HPLC methods used were conventional.\nThe k and half-life (t1/2) were calculated from the slope of the linear regression line in the elimination phase of the semi-logarithmic plot of plasma concentration versus time as: Log C=−kt/2.3+log C0. Results were expressed as mean±standard error."}, "[3]": {"system": "cortical neurons injured with okadaic acid", "assay": "In vitro neuroprotection, cortical cultures injured with okadaic acid (MTT)", "format": "cell-based, rat", "details": "10 μM; okadaic acid injury; 24 hours incubation; MTT-assay", "protocol": "A dam was sacrificed by CO2-treatment, and then was prepared for caesarean section. After surgery, the embryos were removed from their amniotic sacs and decapitated. The heads were placed on ice in DMEM/F12 medium for striatum and PBS+0.65% D(+)-glucose for cortex.\nThe two cortical hemispheres were carefully removed by spatula from the whole brain with the ventral side facing upside into a PBS+0.65% D(+)-glucose containing petri dish. Forceps were put into the rostral part (near B. olfactorius) of the cortex in order to fix the tissue and two lateral-sagittal oriented cuts were made to remove the […] and entorhinal cortices. […]\nThe cells were triturated once with a glass Pasteur pipette in 1 ml of Neurobasal/B27 medium and subsequently twice by using a 1 ml insulin syringe with a 22 gauge needle. […] Cells were counted and adjusted to 50,000 cells per 60 μl. […]\nTo cause toxic injury to neurons, we exposed neurons to 1:100 parts of okadaic acid at concentrations of 30 nM or 100 nM and 0.5 mM 3-nitropropionic acid (for cerebellar microexplants only). […] The survival rate was determined by a colorimetric end-point MTT-assay at 595 nm in a multi-well plate reader. For the cerebellar microexplants four windows (field of 0.65 mm^2) with highest cell density were chosen and cells displaying neurite outgrowth were counted."}, "fmr1 knockout mice": {"system": "fmr1 knockout mice", "assay": "Species typical behaviors: marble burying and nest building", "format": "in vivo, mouse", "details": "100 mg/kg i.p. 28 days"}, "[4]": {"details": "30 mg/kg T.I.D. oral vs placebo"}},
  "note": "Entries after “also recorded” stand apart in the source; their conditions may differ. Where a SMILES comes first, the peptide text is derived from it.",
  "data": [
    {"smiles": "C[C@@]1(C(=O)N[C@@H](CCC(=O)O)C(=O)O)CCCN1C(=O)CN", "note": "[Example G-2-MePE, Glycyl-L-2-methylprolyl-L-glutamic acid] (HELM PEPTIDE1{G.[C[C@@]1(C(=O)[*:2])CCCN1[*:1]].E}$$$$V2.0)", "values": [
      {"measurement": "EEG spike activity", "setting": "[1]; [4]", "result": "decreases spike activity"},
      {"measurement": "power of the delta band of the EEG", "setting": "[1]; [4]", "result": "decreases the power of the delta band"},
      {"measurement": "subscales Nonverbal Communication, Epilepsy/Seizures, Hand use", "setting": "[1]; [4]", "result": "significant effects"},
      {"measurement": "Serious Adverse Events", "setting": "[1]; 10 or 30 mg/kg T.I.D. oral", "result": "No Serious Adverse Events"},
      {"measurement": "adverse events / tolerability", "setting": "[1]; 10 or 30 mg/kg T.I.D. oral", "result": "no more adverse events than are present during treatment with placebo; also recorded: well tolerated"},
      {"measurement": "increases in QTC", "setting": "[1]; 10 or 30 mg/kg T.I.D. oral", "result": "No instances of increases in QTC"},
      {"measurement": "respiratory rate or heart rate variability", "setting": "[1]; 10 or 30 mg/kg T.I.D. oral", "result": "No effects"},
      {"measurement": "Rett Syndrome Natural History/Clinical Severity Score, overall", "setting": "[1]; human, in vivo", "result": "no significant effect overall"},
      {"measurement": "spikes per unit time in the EEG, overall", "setting": "[1]; overall treatment effect", "result": "significant overall reduction"},
      {"measurement": "total hand movements per twenty-four hour period (Q-Sensor)", "setting": "[1]; significant for 30 mg/kg T.I.D.", "result": "reduces total hand movements"},
      {"measurement": "maximal plasma concentration relative to GPE", "setting": "[2]; G-2-MePE 10 mg/kg vs GPE 30 mg/kg i.v.", "result": "about 4.8 times"},
      {"measurement": "t1/2 relative to GPE", "setting": "[2]; i.v.", "result": "over 4 times"},
      {"measurement": "half-life", "setting": "[2]; male, Wistar, rat, plasma, iv, single i.v. bolus, GPE 30 mg/kg, G-2-MePE 10 mg/kg", "result": "20.7 ± 0.35", "unit": "min"},
      {"measurement": "clearance", "setting": "[2]; male, Wistar, rat, plasma, iv, single i.v. bolus, GPE 30 mg/kg, G-2-MePE 10 mg/kg, read-out: estimated clearance from plasma (converted)", "result": 0.502, "unit": "mL/min"},
      {"measurement": "first order rate constant", "setting": "[2]; single i.v. bolus, GPE 30 mg/kg, G-2-MePE 10 mg/kg", "result": "0.033 ± 0.001", "unit": "min⁻¹"},
      {"measurement": "peak plasma concentration", "setting": "[2]; single i.v. bolus, GPE 30 mg/kg, G-2-MePE 10 mg/kg, mean±standard error", "result": "191 ± 16.1", "unit": "µg/mL"},
      {"measurement": "neuroprotection", "setting": "[3]", "result": 59, "unit": "%"},
      {"measurement": "marble burying behavior", "setting": "fmr1 knockout mice; fmr1 KO", "result": "normalized marble burying behavior"},
      {"measurement": "nest building behavior", "setting": "fmr1 knockout mice; fmr1 KO", "result": "increased both marble burying and nest building behaviors"},
      {"measurement": "marble burying", "setting": "fmr1 knockout mice; wild-type mice", "result": "no significant effect"}
    ]}
  ]
}
